Assay results reported in US11530196B2, “Pyrimidine compound acting on EGFR and ERBB2” (CHINA RESOURCES PHARMACEUTICAL HOLDINGS COMPANY LIMITED, priority 2019, dated 2022).
Several values for one entry are separate records, joined by “and”; a condition that tells them apart may be missing. Equal entries are not always repeated.

Assays:
[1] = Compound stability test in plasma (human); type: in vitro ADME
Method: In this study, mouse, SD rat, Beagle, cynomolgus monkey and human plasma were used as materials to investigate the stability of the tested compounds in the plasma of the above five species. Propantheline, Enalapril, Bisacodyl and Procaine were used as control compounds.
The experimental conditions for the test compounds were as follows: • test concentration: 2 μM (DMSO ≤0.5%); • incubation times: 0, 10, 30, 60 and 120 minutes; • frozen plasma (from multiple species) was used in the test system; • incubation conditions: 37° C.
The mixed frozen plasma was thawed in a 37° C. water bath prior to the experiment. Plasma was centrifuged at 4000 rpm for 5 minutes and cleared if there was a clot. The pH will be adjusted to 7.4±0.1 if required.
The intermediate solution of 1 mM compound and positive control was prepared by diluting 10 mM stock solution with 90 μL of dimethyl sulfoxide. 100 μM solution was prepared by diluting 20 μL of intermediate solution (1 mM) with 180 μL of 45% methanol/water.
2 μL of 100 μM solution was added to 98 μL of blank plasma to achieve a final concentration of 2 μM (in duplicate) of the sample, and the sample was incubated in a 37° C. water bath. At each time point (0, 10, 30, 60 and 120 min), 400 μL of termination solution (200 ng/mL toluenesulfonylurea and 200 ng/mL labetalol, 50% ACN/MeOH) was added to precipitate the proteins and mixed thoroughly. […]

[2] = biological target: Ba/F3 EGFR-H773_V774insNPH (Homo sapiens, UniProt P00533, DUP771-773, cells depend on it); experiment: Anti-proliferation against Ba/F3 exon 20 insertion mutant cells (NPH); type: cell-based, mouse; conditions: CTG, 72 hours, read-out: Mutant cells IC50 (anti-proliferation)
Text: RPMI1640 medium was purchased from Hyclone, FBS fetal bovine serum was purchased from GBICO, and trypsin-EDTA were both purchased from Giboco. DPBS was purchased from Corning, penicillin/streptomycin solution was purchased from Hyclone, and Cell-Titer Glo reagent was purchased from Promega (Cat. No. G7572). Ba/F3 EGFR-D770_N771insSVD, Ba/F3 EGFR-H773_V774insNPH, Ba/F3 EGFR-V769_D770insASV, BaF3 ERBB2 A775_G776 ins YVMA, the cell lines were constructed by Beijing Kang Yuan Bochuang Biotechnology Co., Ltd. Plate reading instrument: Envision (PerkinElmer).
Cells in logarithmic growth phase were harvested and cell counts were performed using a […]. Cell viability was detected by the Taipan Blue rejection assay. The cell concentration was adjusted; the cell suspension was added to a 96-well plate separately. Cells in 96-well plates were incubated overnight at 37° C., 5% CO2, and 95% humidity. […] The cell plate was placed at room temperature to stabilize the cold light signal, and the cold light values were read. The data were analyzed using GraphPad Prism 7.0 software, and a nonlinear S-curve regression was used to fit the data to derive the dose-effect curve from which the IC50 values were calculated. […]

[3] = biological target: EGFR exon 20 insertion (D770_N771insNPG) enzyme (Homo sapiens, UniProt P00533, INS770NPG); experiment: Kinase assay (HTRF KinEASE TK), EGFR exon 20 insertion; type: biochemical
Text: (§1) To detect the inhibitory effect of compounds on EGFR WT, EGFR (D770_N771insNPG), ERBB2 (V777_G778ins>CG), EGFR T790M/L858R enzyme activities
(§2) EGFR WT (Invitrogen, Cat. No. PR7295B), EGFR [L858R] (Invitrogen, Cat. No. PR7447A), EGFR [d746-750] (Invitrogen, Cat. No. PV6179), ATP (Sigma, Cat. No. A7699-1G), DMSO (Sigma, Cat. No. D2650), DTT (Sigma, Cat. No. 43815), 384-well plate, compound dilution plate (Greiner, Cat. No. 781280), 384-well plate, test plate (Perkin Elmer, Cat. No. 6007299), HTRF KinEASE TK Kit (Cisbio, Cat. No. 62TK0PEB), magnesium chloride (Sigma, Cat. No. M1028), Orthovanadate (Sigma, Cat. No. 56508), BSA (Sigma, Cat. No. A7030), HEPES (Life technology, Cat. No. 11344-041).
(§3) The final test concentrations of the test compounds ranged from 10 μM to 0.17 nM in 3-fold gradient dilutions at 11 concentrations.
(§4) The preparation of the buffer, 50 mM HEPES (pH 7.5), 0.01% BSA, 5 mM MgCl2, and 0.1 mM Orthovanadate were contained in the buffer. After the preparation of the buffer, the enzyme and substrate were mixed with pre-diluted prepared compounds of different concentrations, and the mixture was placed at room temperature for 15 minutes. […] After the reaction was completed, the antibody was added to the assay, incubated at room temperature for 60 minutes and then detected by Envision (plate reading instrument), and data were collected. […]

Wild-type EGFR enzymes = biological target: T1, Wild-type EGFR enzymes (Homo sapiens, UniProt P00533); experiment: Kinase assay (HTRF KinEASE TK), EGFR WT; type: biochemical; conditions: read-out: Enzyme IC50
T1 construct: purchased Invitrogen PR7295B
Text: as §1, §2, §3, §4

[4] = biological target: EGFR L858R/T790M double mutant enzyme (Homo sapiens, UniProt P00533, L858R/T790M); experiment: Kinase assay (HTRF KinEASE TK), EGFR L858R/T790M; type: biochemical
Text: as §1, §2, §3, §4

Chain of EGFR exon 20 insertion (D770_N771insNPG) enzyme (P00533 with tags, fused parts or gaps INS770NPG limits assumed): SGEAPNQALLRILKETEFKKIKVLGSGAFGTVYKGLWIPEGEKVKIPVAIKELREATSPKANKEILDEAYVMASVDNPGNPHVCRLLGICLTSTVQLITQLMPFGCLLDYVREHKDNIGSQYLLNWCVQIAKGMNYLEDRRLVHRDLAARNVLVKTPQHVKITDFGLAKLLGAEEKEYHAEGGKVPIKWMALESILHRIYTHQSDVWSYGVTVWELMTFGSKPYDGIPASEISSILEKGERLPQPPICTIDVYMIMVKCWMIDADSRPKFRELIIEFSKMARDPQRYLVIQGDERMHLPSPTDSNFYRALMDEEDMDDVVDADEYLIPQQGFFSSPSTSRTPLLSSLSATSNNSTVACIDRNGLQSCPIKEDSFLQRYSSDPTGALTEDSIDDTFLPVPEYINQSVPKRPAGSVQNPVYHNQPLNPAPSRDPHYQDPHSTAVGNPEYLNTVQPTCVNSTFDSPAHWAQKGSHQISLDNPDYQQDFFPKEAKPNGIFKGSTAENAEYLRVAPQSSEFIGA
Chain of EGFR L858R/T790M double mutant enzyme (P00533 25-1210 T790M/L858R): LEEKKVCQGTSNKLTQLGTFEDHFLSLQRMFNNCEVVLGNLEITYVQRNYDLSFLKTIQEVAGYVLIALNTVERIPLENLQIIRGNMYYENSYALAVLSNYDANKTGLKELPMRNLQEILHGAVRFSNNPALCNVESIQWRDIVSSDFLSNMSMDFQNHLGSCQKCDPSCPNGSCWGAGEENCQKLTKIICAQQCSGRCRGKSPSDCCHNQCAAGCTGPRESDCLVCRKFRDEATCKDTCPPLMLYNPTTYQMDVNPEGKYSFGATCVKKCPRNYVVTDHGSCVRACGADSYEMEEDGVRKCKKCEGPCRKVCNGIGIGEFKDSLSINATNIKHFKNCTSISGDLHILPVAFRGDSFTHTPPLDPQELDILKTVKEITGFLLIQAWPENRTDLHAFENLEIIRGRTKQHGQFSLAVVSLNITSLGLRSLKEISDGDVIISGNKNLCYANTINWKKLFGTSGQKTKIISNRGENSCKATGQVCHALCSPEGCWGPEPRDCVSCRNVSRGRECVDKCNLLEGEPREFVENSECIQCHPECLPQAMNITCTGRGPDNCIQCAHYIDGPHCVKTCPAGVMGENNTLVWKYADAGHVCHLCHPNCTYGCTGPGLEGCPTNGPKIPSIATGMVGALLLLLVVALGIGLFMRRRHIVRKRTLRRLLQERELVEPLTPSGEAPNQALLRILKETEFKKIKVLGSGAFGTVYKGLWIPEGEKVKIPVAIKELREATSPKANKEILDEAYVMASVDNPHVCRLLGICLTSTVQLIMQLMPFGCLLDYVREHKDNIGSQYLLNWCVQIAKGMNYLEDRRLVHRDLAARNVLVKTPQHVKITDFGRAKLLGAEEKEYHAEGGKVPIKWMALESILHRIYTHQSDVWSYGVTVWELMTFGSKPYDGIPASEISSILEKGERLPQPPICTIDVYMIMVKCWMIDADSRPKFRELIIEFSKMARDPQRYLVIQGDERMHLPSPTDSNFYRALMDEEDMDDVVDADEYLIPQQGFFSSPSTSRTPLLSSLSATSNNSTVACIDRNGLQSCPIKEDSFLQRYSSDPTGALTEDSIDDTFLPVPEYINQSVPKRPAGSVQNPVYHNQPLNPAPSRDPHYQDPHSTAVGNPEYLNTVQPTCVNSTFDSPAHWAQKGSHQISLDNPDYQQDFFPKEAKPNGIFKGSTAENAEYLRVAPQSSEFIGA
Chain of Ba/F3 EGFR-H773_V774insNPH (P00533 with tags, fused parts or gaps DUP771-773): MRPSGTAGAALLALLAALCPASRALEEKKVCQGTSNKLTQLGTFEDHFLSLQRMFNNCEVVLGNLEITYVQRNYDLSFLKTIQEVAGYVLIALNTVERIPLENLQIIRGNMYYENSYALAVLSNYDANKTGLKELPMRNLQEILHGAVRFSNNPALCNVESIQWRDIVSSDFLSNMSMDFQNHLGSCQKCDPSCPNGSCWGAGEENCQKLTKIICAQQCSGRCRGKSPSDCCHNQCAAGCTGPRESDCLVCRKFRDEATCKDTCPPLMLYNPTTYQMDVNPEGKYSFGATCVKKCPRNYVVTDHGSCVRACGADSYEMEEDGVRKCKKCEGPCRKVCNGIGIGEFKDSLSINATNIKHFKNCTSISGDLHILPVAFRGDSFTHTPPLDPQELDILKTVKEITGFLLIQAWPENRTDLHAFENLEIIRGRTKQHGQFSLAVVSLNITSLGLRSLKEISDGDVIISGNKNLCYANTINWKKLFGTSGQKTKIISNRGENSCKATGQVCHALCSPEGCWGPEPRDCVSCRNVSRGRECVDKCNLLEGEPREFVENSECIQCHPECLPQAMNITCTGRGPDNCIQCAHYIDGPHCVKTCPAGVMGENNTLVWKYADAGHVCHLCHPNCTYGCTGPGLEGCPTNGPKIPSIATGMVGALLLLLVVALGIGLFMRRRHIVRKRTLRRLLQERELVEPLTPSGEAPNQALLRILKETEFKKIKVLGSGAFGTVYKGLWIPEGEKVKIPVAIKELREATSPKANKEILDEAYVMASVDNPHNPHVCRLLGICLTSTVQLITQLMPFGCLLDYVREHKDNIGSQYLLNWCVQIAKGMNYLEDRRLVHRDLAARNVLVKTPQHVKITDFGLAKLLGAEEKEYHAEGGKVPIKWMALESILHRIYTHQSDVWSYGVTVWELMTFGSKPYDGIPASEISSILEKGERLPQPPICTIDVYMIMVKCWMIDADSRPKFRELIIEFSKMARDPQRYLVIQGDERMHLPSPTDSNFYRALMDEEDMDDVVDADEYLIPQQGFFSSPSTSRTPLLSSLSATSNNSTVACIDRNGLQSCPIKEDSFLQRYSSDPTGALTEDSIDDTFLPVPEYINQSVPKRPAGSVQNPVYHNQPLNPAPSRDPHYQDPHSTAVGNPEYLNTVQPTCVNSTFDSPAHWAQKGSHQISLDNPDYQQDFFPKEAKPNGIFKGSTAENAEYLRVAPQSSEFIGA
T1 sequence (P00533 25-1210): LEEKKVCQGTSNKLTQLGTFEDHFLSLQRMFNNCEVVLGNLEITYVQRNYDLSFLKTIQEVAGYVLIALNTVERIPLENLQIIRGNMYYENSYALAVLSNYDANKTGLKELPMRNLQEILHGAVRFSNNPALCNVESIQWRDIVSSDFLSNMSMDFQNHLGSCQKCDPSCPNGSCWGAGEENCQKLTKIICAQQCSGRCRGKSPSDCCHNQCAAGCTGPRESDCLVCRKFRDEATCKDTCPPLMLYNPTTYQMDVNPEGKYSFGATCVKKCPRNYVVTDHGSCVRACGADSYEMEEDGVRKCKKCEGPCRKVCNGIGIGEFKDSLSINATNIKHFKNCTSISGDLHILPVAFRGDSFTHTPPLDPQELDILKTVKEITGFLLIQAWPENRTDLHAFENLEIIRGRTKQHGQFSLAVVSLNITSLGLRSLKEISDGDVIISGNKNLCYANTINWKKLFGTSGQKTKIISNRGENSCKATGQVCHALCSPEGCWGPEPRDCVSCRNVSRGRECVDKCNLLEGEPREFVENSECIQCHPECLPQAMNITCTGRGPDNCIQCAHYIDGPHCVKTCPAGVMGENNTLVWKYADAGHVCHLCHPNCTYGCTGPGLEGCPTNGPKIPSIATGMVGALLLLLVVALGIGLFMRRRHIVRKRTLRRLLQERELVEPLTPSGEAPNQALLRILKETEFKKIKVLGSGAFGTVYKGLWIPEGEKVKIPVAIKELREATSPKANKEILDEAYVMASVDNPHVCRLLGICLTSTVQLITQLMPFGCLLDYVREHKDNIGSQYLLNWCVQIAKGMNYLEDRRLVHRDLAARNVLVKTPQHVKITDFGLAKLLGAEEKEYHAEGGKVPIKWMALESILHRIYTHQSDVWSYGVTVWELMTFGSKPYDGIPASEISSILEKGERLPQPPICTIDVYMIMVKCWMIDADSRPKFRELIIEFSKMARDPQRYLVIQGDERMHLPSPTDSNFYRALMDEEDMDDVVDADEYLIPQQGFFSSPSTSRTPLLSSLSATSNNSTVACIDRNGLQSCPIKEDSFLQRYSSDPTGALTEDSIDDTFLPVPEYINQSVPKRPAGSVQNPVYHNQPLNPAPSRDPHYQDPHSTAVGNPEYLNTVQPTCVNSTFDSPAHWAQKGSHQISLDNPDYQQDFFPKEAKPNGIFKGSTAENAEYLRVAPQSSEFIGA

With C=CC(=O)Nc1cc(Nc2ncc(C(=O)OC(C)C)c(-c3cn(OC)c4ccccc34)n2)c(OC)cc1N(C)CCN(C)C.CS(=O)(=O)O [Compound 1] the “In vitro plasma stability (Residual percentage)” value ([1]; 120 minutes, 2 μM, 37° C.) was 19%, the half-life at 2 µM ([1]; pH 7.4, 37° C., read-out: In vitro plasma half-life T1/2) was 51.6 min and the GI50 [2] was 15 nM. The IC50 [3] was 0.8 nM and 0.7 nM, the IC50 (Wild-type EGFR enzymes) was 0.39 nM and the IC50 [4] was 3.71 nM.
